Source: ChEMBL document CHEMBL2094260, “Malaria Box Tuberculosis Screening Data”

Each compound was assayed on Mycobacterium tuberculosis (assay: MMV: Screen against Mtb, single point, non replicating, at 25uM).
Format: functional

Going from CCOC(=O)c1c[nH]c2c(CC)cccc2c1=O to CCCCCCOC(=O)C1=C(C)NC(=O)NC1c1ccccc1F (stereo not given), the inhibition at 25 µM falls from 11.1% to 6.8%.

First: CC1CN(C(=O)c2sc3ccccc3c2Cl)CC(C)O1 (stereo not given)
Second: CCCc1c(CC)c(=N)c2ccccc2n1C
The inhibition at 25 µM of the first is higher: 22.9% for the first, 4% for the second.

Compared with Cn1c(C(=O)c2cccc3ccccc23)nc2ccccc21, COc1ccccc1CNC(=O)CCn1c(=O)[nH]c2ccccc2c1=O is lower in inhibition at 25 µM: 31.5% for the first, 11.2% for the second.

First: CCCCOc1ccc(C(=O)Nc2cc(C)on2)cc1
Second: CCOc1ccc(-c2nc(NC(=O)c3cccc(S(C)(=O)=O)c3)sc2C)cc1
The inhibition at 25 µM of the first is higher: 15% for the first, 11.7% for the second.

First: N=c1n(CCN2CCCCC2)c2ccccc2n1CC(O)c1cccc(Br)c1 (stereo not given)
Second: CC(O)(c1ccc(Cl)cc1)C(CN1CCCCC1)c1ccccc1 (stereo not given)
The inhibition at 25 µM of the first is higher: 12.9% for the first, 11.2% for the second.

Going from CCOc1ccc(CN2CCN(CC(O)COc3ccc(OCC(O)CN4CCN(Cc5ccc(OCC)cc5)CC4)cc3)CC2)cc1 (stereo not given) to O=C(Nc1ccc(CN2CCOCC2)cc1)c1ccc(-c2ccc(Br)cc2)o1, the inhibition at 25 µM rises from 17.5% to 24.4%.

Going from CCCCCCc1cc(O)c2c3c(c(=O)oc2c1)CCC(C)C3 (stereo not given) to CCCCCCc1cc2cc(-c3csc(C=Cc4ccccc4)n3)c(=O)oc2cc1O, the inhibition at 25 µM falls from 11.4% to 9.83%.

Compared with CCOC(=O)c1cnc2c(C)cc(C)cc2c1Nc1ccc(OC)c(OC)c1, COc1ccc(C(=O)Nc2ccc3nc(N4CCCCC4)cc(C)c3c2)cc1OC is higher in inhibition at 25 µM: 3.83% for the first, 23.7% for the second.

Compared with O=C(NCC(c1ccsc1)N1CCCCCC1)c1ccc(C(F)(F)F)cc1 (stereo not given), COc1ccc(N2CCN(C(CNC(=O)C3CCCCC3)c3ccc4c(c3)OCO4)CC2)cc1 (stereo not given) is lower in inhibition at 25 µM: 10.5% for the first, 0.862% for the second.

Going from COc1ccccc1CNC(=O)C1c2ccccc2C(=O)N(CC(C)C)C1c1cccs1 (stereo not given) to COc1ccc2c(c1OC)C(=O)N1c3ccccc3N=C(c3ccc(C)cc3)CC21 (stereo not given), the inhibition at 25 µM rises from 9.76% to 15.2%.

Going from CC(C)c1ccc(CNCC(O)c2ccccc2)cc1 (stereo not given) to CCC1(C)CC(CCNCc2ccccc2O)(c2ccc(C)cc2)CCO1 (stereo not given), the inhibition at 25 µM falls from 11.7% to 2.96%.

First: Cc1ccc(C2CC(C(F)(F)F)n3nc(C(=O)N4CCN(C(c5ccccc5)c5ccccc5)CC4)cc3N2)cc1 (stereo not given)
Second: Cc1ccc(-c2cc3c(SCC(=O)Nc4cc(C(F)(F)F)ccc4Cl)nccn3n2)cc1
The inhibition at 25 µM of the first is higher: 10.5% for the first, 8.19% for the second.

First: COc1cc(C(=O)ON=C(N)Cc2cccc3ccccc23)cc(OC)c1OC
Second: CCOc1cc(Br)c(C(C)NC(=O)c2cccc(OC)c2)cc1OCC (stereo not given)
The inhibition at 25 µM of the first is higher: 24.2% for the first, 5.22% for the second.

Going from Cc1cccc(-n2ncc3c(O)nc(-n4nc(C)cc4NC(=O)c4cc5ccccc5o4)nc32)c1 to Cc1cc(NC(=O)c2cccc(C(F)(F)F)c2)n(-c2nc(-c3ccc4c(c3)OCO4)cs2)n1, the inhibition at 25 µM falls from 48.2% to 3.48%.

Going from CCOc1ccc(-n2cc(-c3ccccc3)c3c(SCc4cc(C)ccc4C)ncnc32)cc1 to O=C(Nc1ccccc1O)c1ccc(Oc2cccc(C(=O)Nc3ccccc3O)c2)cc1, the inhibition at 25 µM falls from 21.9% to 11.7%.

First: COc1ccc(-c2nc(N3CCN(C(=O)C4CCCCC4)CC3)c3c4c(sc3n2)CCCC4)cc1
Second: O=C(NCCCN1CCC(N2CCCCC2)CC1)C1=Cc2cc(Br)ccc2OC1
The inhibition at 25 µM of the first is higher: 12.7% for the first, 6.82% for the second.

Going from COc1ccc(OC)c(C2C3=C(CC(C)(C)CC3=O)N(c3ccc(Cl)c(Cl)c3)C3=C2C(=O)CC(C)(C)C3)c1 to CSC1=NC(=Nc2c(C)cccc2C)C2(CCC(C(C)(C)C)CC2)N1c1ccc(Cl)cc1 (stereo not given), the inhibition at 25 µM rises from 7.7% to 9.94%.

Going from CC(C)(C)c1ccc2c(c1)CN(Cc1ccc(Cl)cc1)CO2 to COc1ccc(C(O)(CCC(C)C)C(CN2CCOCC2)c2ccc(Cl)cc2)cc1 (stereo not given), the inhibition at 25 µM falls from 41.2% to 10%.

First: O=C(CCl)NCCOc1ccc(Cl)cc1Cl
Second: OC(CNCC1CCCO1)Cn1c2ccc(Cl)cc2c2cc(Cl)ccc21 (stereo not given)
The inhibition at 25 µM of the first is higher: 25.3% for the first, 20.4% for the second.

First: COc1ccc(Nc2nc(N/N=C/c3ccc(O)cc3)nc(Nc3ccc([N+](=O)[O-])cc3)n2)cc1
Second: Oc1ccc(Br)cc1CN1CCN(Cc2cccc(F)c2)CC1
The inhibition at 25 µM of the first is higher: 31.8% for the first, -1.58% for the second.

Each compound was assayed on Mycobacterium tuberculosis (assay: MMV: Screen against Mtb, single point, replicating, at 25uM).
Format: functional

Compared with CCOC(=O)c1c[nH]c2c(CC)cccc2c1=O, CCCCCCOC(=O)C1=C(C)NC(=O)NC1c1ccccc1F (stereo not given) is higher in inhibition at 25 µM: 4.62% for the first, 9.78% for the second.

Going from CC1CN(C(=O)c2sc3ccccc3c2Cl)CC(C)O1 (stereo not given) to CCCc1c(CC)c(=N)c2ccccc2n1C, the inhibition at 25 µM rises from 15.5% to 16%.

First: Cn1c(C(=O)c2cccc3ccccc23)nc2ccccc21
Second: COc1ccccc1CNC(=O)CCn1c(=O)[nH]c2ccccc2c1=O
The inhibition at 25 µM of the first is lower: 4.31% for the first, 6.74% for the second.

First: CCCCOc1ccc(C(=O)Nc2cc(C)on2)cc1
Second: CCOc1ccc(-c2nc(NC(=O)c3cccc(S(C)(=O)=O)c3)sc2C)cc1
The inhibition at 25 µM of the first is lower: 23.1% for the first, 54.3% for the second.

Compared with N=c1n(CCN2CCCCC2)c2ccccc2n1CC(O)c1cccc(Br)c1 (stereo not given), CC(O)(c1ccc(Cl)cc1)C(CN1CCCCC1)c1ccccc1 (stereo not given) is lower in inhibition at 25 µM: 16.3% for the first, 8.72% for the second.

Compared with CCOc1ccc(CN2CCN(CC(O)COc3ccc(OCC(O)CN4CCN(Cc5ccc(OCC)cc5)CC4)cc3)CC2)cc1 (stereo not given), O=C(Nc1ccc(CN2CCOCC2)cc1)c1ccc(-c2ccc(Br)cc2)o1 is higher in inhibition at 25 µM: 13.2% for the first, 26% for the second.

First: CCCCCCc1cc(O)c2c3c(c(=O)oc2c1)CCC(C)C3 (stereo not given)
Second: CCCCCCc1cc2cc(-c3csc(C=Cc4ccccc4)n3)c(=O)oc2cc1O
The inhibition at 25 µM of the first is higher: 12.8% for the first, -0.392% for the second.

Going from CCOC(=O)c1cnc2c(C)cc(C)cc2c1Nc1ccc(OC)c(OC)c1 to COc1ccc(C(=O)Nc2ccc3nc(N4CCCCC4)cc(C)c3c2)cc1OC, the inhibition at 25 µM rises from 4.46% to 21.3%.

Going from O=C(NCC(c1ccsc1)N1CCCCCC1)c1ccc(C(F)(F)F)cc1 (stereo not given) to COc1ccc(N2CCN(C(CNC(=O)C3CCCCC3)c3ccc4c(c3)OCO4)CC2)cc1 (stereo not given), the inhibition at 25 µM falls from 8.41% to -3.89%.

First: COc1ccccc1CNC(=O)C1c2ccccc2C(=O)N(CC(C)C)C1c1cccs1 (stereo not given)
Second: COc1ccc2c(c1OC)C(=O)N1c3ccccc3N=C(c3ccc(C)cc3)CC21 (stereo not given)
The inhibition at 25 µM of the first is higher: 15.7% for the first, 4.94% for the second.

Compared with CC(C)c1ccc(CNCC(O)c2ccccc2)cc1 (stereo not given), CCC1(C)CC(CCNCc2ccccc2O)(c2ccc(C)cc2)CCO1 (stereo not given) is lower in inhibition at 25 µM: 30.9% for the first, 14.5% for the second.

Compared with Cc1ccc(C2CC(C(F)(F)F)n3nc(C(=O)N4CCN(C(c5ccccc5)c5ccccc5)CC4)cc3N2)cc1 (stereo not given), Cc1ccc(-c2cc3c(SCC(=O)Nc4cc(C(F)(F)F)ccc4Cl)nccn3n2)cc1 is lower in inhibition at 25 µM: 14.3% for the first, 3.25% for the second.

Compared with COc1cc(C(=O)ON=C(N)Cc2cccc3ccccc23)cc(OC)c1OC, CCOc1cc(Br)c(C(C)NC(=O)c2cccc(OC)c2)cc1OCC (stereo not given) is lower in inhibition at 25 µM: 59.3% for the first, 11.9% for the second.

First: Cc1cccc(-n2ncc3c(O)nc(-n4nc(C)cc4NC(=O)c4cc5ccccc5o4)nc32)c1
Second: Cc1cc(NC(=O)c2cccc(C(F)(F)F)c2)n(-c2nc(-c3ccc4c(c3)OCO4)cs2)n1
The inhibition at 25 µM of the first is higher: 48.5% for the first, 5.83% for the second.

Going from CCOc1ccc(-n2cc(-c3ccccc3)c3c(SCc4cc(C)ccc4C)ncnc32)cc1 to O=C(Nc1ccccc1O)c1ccc(Oc2cccc(C(=O)Nc3ccccc3O)c2)cc1, the inhibition at 25 µM rises from -0.392% to 11.8%.

Compared with COc1ccc(-c2nc(N3CCN(C(=O)C4CCCCC4)CC3)c3c4c(sc3n2)CCCC4)cc1, O=C(NCCCN1CCC(N2CCCCC2)CC1)C1=Cc2cc(Br)ccc2OC1 is higher in inhibition at 25 µM: 14.2% for the first, 14.7% for the second.

First: COc1ccc(OC)c(C2C3=C(CC(C)(C)CC3=O)N(c3ccc(Cl)c(Cl)c3)C3=C2C(=O)CC(C)(C)C3)c1
Second: CSC1=NC(=Nc2c(C)cccc2C)C2(CCC(C(C)(C)C)CC2)N1c1ccc(Cl)cc1 (stereo not given)
The inhibition at 25 µM of the first is higher: 5.56% for the first, 1.28% for the second.

First: CC(C)(C)c1ccc2c(c1)CN(Cc1ccc(Cl)cc1)CO2
Second: COc1ccc(C(O)(CCC(C)C)C(CN2CCOCC2)c2ccc(Cl)cc2)cc1 (stereo not given)
The inhibition at 25 µM of the first is higher: 48.4% for the first, 4.78% for the second.

First: O=C(CCl)NCCOc1ccc(Cl)cc1Cl
Second: OC(CNCC1CCCO1)Cn1c2ccc(Cl)cc2c2cc(Cl)ccc21 (stereo not given)
The inhibition at 25 µM of the first is higher: 35% for the first, 1.28% for the second.

Going from COc1ccc(Nc2nc(N/N=C/c3ccc(O)cc3)nc(Nc3ccc([N+](=O)[O-])cc3)n2)cc1 to Oc1ccc(Br)cc1CN1CCN(Cc2cccc(F)c2)CC1, the inhibition at 25 µM rises from 15.3% to 28.5%.
